# Test results: PMC7311950, “Potent Tetrahydroquinolone Eliminates Apicomplexan Parasites” (Frontiers in Cellular and Infection Microbiology, 2020)
# Molecular target: T1, P. falciparum bc1 complex cytochrome c reductase (Pfbc1) (Plasmodium falciparum, UniProt Q02768)
# T1 construct: Parasite extract was then prepared by disruption with a sonicating probe; endogenous in cells; host or cells: P. falciparum strain 3D7 blood-stage culture, sonicated parasite extract
# T1 sequence (Q02768 1-376): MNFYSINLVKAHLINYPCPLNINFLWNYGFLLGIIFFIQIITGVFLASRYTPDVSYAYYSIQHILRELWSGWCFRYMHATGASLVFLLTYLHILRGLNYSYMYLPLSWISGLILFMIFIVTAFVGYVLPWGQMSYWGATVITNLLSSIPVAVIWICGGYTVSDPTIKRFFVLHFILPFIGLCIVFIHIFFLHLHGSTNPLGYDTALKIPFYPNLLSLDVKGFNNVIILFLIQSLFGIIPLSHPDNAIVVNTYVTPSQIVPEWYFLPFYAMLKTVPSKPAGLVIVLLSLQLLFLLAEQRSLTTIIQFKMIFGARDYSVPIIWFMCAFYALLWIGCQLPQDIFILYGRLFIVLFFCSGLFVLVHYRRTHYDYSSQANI
# Assay: Pfbc1 native assay (cytochrome c reduction by parasite extract)
# Assay type: biochemical
# Details: atovaquone 1 μM positive control, X ± S.D., N = 4
# Description: P. falciparum 3D7 strain were obtained from the Liverpool School of Tropical Medicine. Protease cocktail inhibitor was obtained from Roche. Bradford protein assay dye reagent was obtained from Bio-Rad. All other reagents were obtained from Sigma-Aldrich. Decylubiquinol was produced as per Fisher et al. ([2009]). In brief, 25 mg of decylubiquinone were dissolved in 400 μL of nitrogen-saturated hexane. An equal volume of aqueous 1 M sodium dithionite was added, and the mixture vortexed until colorless. The organic phase containing the decylubiquinol was collected, the solvent was evaporated under N2 and the decylubiquinol finally dissolved in 100 μL of 96% ethanol (acidified with 10 mM HCl). Concentrations of decylubiquinol was determined spectrophotometrically on a Cary 300 Bio UV/visible spectrophotometer (Varian, UK) from absolute spectra, using ε288−−320 = 8.1 mM^−1.cm^−1. Decylubiquinol was stored at −80°C and used within 2 weeks. […]
# The protocol for the preparation of parasite extract was adapted from Fisher et al. ([2009]). […] The protein concentration of the parasite extract was determined by Bradford protein assay (Bio-Rad).
# P. falciparum bc1 complex cytochrome c reductase (Pfbc1) activity was measured by monitoring cytochrome c reduction at 550 vs. 542 nm using a Cary 300 Bio UV-Visible Spectrophotometer (Varian, UK), using a protocol adapted from Fisher et al. ([2009]). […]
smiles,measurement,value
"Cc1[nH]c2c(c(=O)c1-c1ccc(Oc3ccc(OC(F)(F)F)cc3)cc1)CCCC2 [JAG21, 2-Methyl-3-(4-(4-(Trifluoromethoxy)Phenoxy)Phenyl)-5,6,7,8-Tetrahydroquinolin-4-One]",inhibition at 1 µM,86.4 ± 3.2%
